Results published in doi:10.64898/2025.12.13.694138, “Structural insights into xyloglucan recognition by an ABC transporter from a Gram-positive, thermophilic bacterium” (bioRxiv, 2025).
Where two headings read alike, the source gives them in different places.

Columns and labels:
Assay in all cases: ITC ([…] °C); DSC ΔTm […] °C
Assay type in all cases: binding
Athe_2052 [1] = molecular target: T1, Athe_2052 (Caldicellulosiruptor bescii, UniProt B9MLD9)
T1 construct: Athe_2052 without its signal peptide, N-terminal hexa-histidine tag
T1 sequence (B9MLD9 entry or part of it): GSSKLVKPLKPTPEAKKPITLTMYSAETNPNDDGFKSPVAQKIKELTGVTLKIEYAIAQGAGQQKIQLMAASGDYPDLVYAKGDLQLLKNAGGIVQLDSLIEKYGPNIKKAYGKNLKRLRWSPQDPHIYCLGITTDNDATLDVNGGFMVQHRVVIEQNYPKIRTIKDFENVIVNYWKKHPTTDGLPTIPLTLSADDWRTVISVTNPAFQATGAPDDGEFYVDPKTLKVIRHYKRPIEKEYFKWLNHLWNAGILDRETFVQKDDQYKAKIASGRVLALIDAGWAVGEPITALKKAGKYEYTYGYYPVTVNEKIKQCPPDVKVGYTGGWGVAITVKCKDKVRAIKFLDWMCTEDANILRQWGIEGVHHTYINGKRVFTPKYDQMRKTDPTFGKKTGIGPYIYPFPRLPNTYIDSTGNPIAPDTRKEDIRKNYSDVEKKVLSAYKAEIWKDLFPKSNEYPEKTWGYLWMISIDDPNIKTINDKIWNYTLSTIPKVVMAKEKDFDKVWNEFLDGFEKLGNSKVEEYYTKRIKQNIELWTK

Athe_2052 [2] = molecular target: T1, Athe_2052; remark: listed apart in the source
Athe_2052 [3] = molecular target: T1, Athe_2052; remark: listed apart in the source

SMILES: OC[C@H]1O[C@@H](O[C@H]2[C@H](O)[C@@H](O)[C@H](O[C@H]3[C@H](O)[C@@H](O)C(O)O[C@@H]3CO)O[C@@H]2CO)[C@H](O)[C@@H](O)[C@@H]1O (stereo partly drawn) [Cellotriose]
- Kd (Athe_2052 [1]): 247 nM

SMILES: OC[C@H]1OC(O)[C@H](O)[C@@H](O)[C@@H]1O[C@@H]1O[C@H](CO[C@H]2OC[C@@H](O)[C@H](O)[C@H]2O)[C@@H](O[C@@H]2O[C@H](CO[C@H]3OC[C@@H](O)[C@H](O)[C@H]3O)[C@@H](O[C@@H]3O[C@H](CO[C@H]4OC[C@@H](O)[C@H](O)[C@H]4O)[C@@H](O)[C@H](O)[C@H]3O)[C@H](O)[C@H]2O)[C@H](O)[C@H]1O (stereo partly drawn) [XXXG, xyloglucan heptasaccharide]
- Kd (Athe_2052 [2]): 14 nM

SMILES: OC[C@H]1O[C@@H](O[C@H]2[C@H](O)[C@@H](O)[C@H](O[C@H]3[C@H](O)[C@@H](O)[C@H](O[C@H]4[C@H](O)[C@@H](O)C(O)O[C@@H]4CO)O[C@@H]3CO)O[C@@H]2CO)[C@H](O)[C@@H](O)[C@@H]1O (stereo partly drawn) [Cellotetraose]
- Kd (Athe_2052 [3]): 214 nM
